Experiments:
p-p70S6K = p-p70S6K protein expression by western blot in L6 muscle cells; type: cell-based
Description: (§1) L6 myoblasts (ATCC, Manassas, Va., USA) were added to a 6-well plate with Dulbecco's modified Eagle's Media (DMEM; Hyclone) containing 10% fetal bovine serum (FBS; Hyclone, Logan, Utah, USA) at a concentration of 2×10^5 cells/mL. When the cell density reached about 80 to 85%, the medium in the wells was removed. […] Meanwhile, a group treated with 0.01% DMSO instead of the sample was used as a control group. This procedure was carried out for 6 days in two days to differentiate and then dissolved in NP-40 buffer solution (ELPIS-Biotech, Daejeon, Republic of Korea) containing proteinase inhibitor cocktail. The cells dissolved in the buffer solution were transferred to a 1.5-mL tube and centrifuged at 13,000 rpm for 10 minutes to take only a supernatant. The supernatant was quantified using Bradford (Bio-Rad Laboratories Inc., Hercules, Calif., USA). The quantified proteins were boiled for 5 minutes, separated by electrophoresis on 10% SDS-PAGE, and were transferred to the nitrocellulose membrane. A p-mTOR primary antibody (Cellular signaling technology, Beverly, Mass., USA) was diluted with 2.5% bovine serum albumin (BSA) at a ratio of 1:1000 and reacted with proteins transferred to the nitrocellulose membrane for 20 hours at room temperature. […]

myogenin = myogenin mRNA expression by RT-PCR in L6 muscle cells; type: cell-based; conditions: 6 days
Description: (§2) Muscle cells, L6 myoblasts (ATCC) were added to a 6-well plate at 2×10^5 cells/ml together with DMEM (Hyclone) containing 10% FBS (Hyclone). When the cell density reached about 80 to 85%, the medium in the wells was removed. […] Meanwhile, a group treated with 0.01% DMSO instead of the sample was used as a control group. This procedure was carried out for 6 days in two days to differentiate and total RNA was isolated using TRIzol reagent (Invitrogen. Carlsbad, Calif., USA). The isolated total RNA was quantified using NanoDrop 1000 (Thermo Fisher Scientific Inc., MA, USA). Quantified 16 μL of RNA was synthesized into cDNA using Reverse Transcriptase Premix (ELPIS-Biotech) and PCR machine (Gene Amp PCR System 2700: Applied Biosystems, MA, USA) at 42° C. for 55 minutes and 70° C. for 15 minutes. 4 μL out of 16 μL cDNA was amplified by PCR using the following specific primers (Bioneer, Daejeon, Republic of Korea) and PCR premix (ELPIS-Biotech). PCR was performed by repeating 30 cycles of 95° C. for 30 seconds, 60° C. for 1 minute, and 72° C. for 1 minute.
(§3) PCR-amplified cDNA was separated by electrophoresis on 1.5% agarose gel and cDNA band was identified using G:BOX EF imaging system (Syngene).
(§4) L6 myoblast (ATCC) were cultured in the same manner as in Example 7. […]

p-mTOR = p-mTOR protein expression by western blot in L6 muscle cells; type: cell-based; conditions: 5 μM, differentiation 6 days, vs 0.01% DMSO control
Description: L6 myoblasts (ATCC, Manassas, Va., USA) were added to a 6-well plate with Dulbecco's modified Eagle's Media (DMEM; Hyclone) containing 10% fetal bovine serum (FBS; Hyclone, Logan, Utah, USA) at a concentration of 2×10^5 cells/mL. When the cell density reached about 80 to 85%, the medium in the wells was removed. The ethanol extract of Mori Cortex Radicis (20 μg/mL) prepared in Example 1-2, the hot water extract of Mori Cortex Radicis (20 μg/mL) prepared in Example 1-5, the morusin (5 μM) and the kuwanon G (5 μM) isolated and purified in Example 2 were dissolved in DMEM (Hyclone) containing 2% HS (Hyclone), followed by its treatment to the cells to induce myotube differentiation. Meanwhile, a group treated with 0.01% DMSO instead of the sample was used as a control group. This procedure was carried out for 6 days in two days to differentiate and then dissolved in NP-40 buffer solution (ELPIS-Biotech, Daejeon, Republic of Korea) containing proteinase inhibitor cocktail. The cells dissolved in the buffer solution were transferred to a 1.5-mL tube and centrifuged at 13,000 rpm for 10 minutes to take only a supernatant. The supernatant was quantified using Bradford (Bio-Rad Laboratories Inc., Hercules, Calif., USA). The quantified proteins were boiled for 5 minutes, separated by electrophoresis on 10% SDS-PAGE, and were transferred to the nitrocellulose membrane. […]

MyoD = MyoD mRNA expression by RT-PCR in L6 muscle cells; type: cell-based; conditions: 6 days
Description: as §2, §3, §4

Wistar rats = assay: Muscle mass in TNF-α-induced muscular atrophy animal model; type: in vivo; conditions: for increase in weight of muscle: 300 mg/kg body weight, 8 weeks, vs control group, p<0.01; for Average calf muscle weight: TNF-α-induced atrophy, 300 mg/kg body weight once a day for 8 weeks, right calf
Description: Five-week-old Wistar rats were adapted for 1 week and 100 ng/g of TNF-α was supplied for 2 weeks to induce muscular atrophy. Then, groups were randomly assigned on the basis of body weight and divided into five groups of 8 rats per each group. 500 mg/kg body weight of the ethanol extract of Mori Cortex Radicis prepared in Example 1-2, 500 mg/kg body weight of the hot-water extract of Mori Cortex Radicis prepared in Example 1-5, 300 mg/kg body weight of the morusin prepared in Example 2-1, and 300 mg/kg body weight of the kuwanon G prepared in Example 2-2 were suspended in 0.25% carboxymethylcellulose, respectively, followed by their administration on experimental groups once a day for 8 weeks at regular time. A control group was administered with TNF-α suspended in the same amount of 0.25% carboxymethyl cellulose ingested by the experimental groups.
After 8 weeks of administration, the muscles under the right calf were excised and weighed with microbalance (Mettler PE 160, USA).

atrogin-1 = atrogin-1 mRNA expression by RT-PCR in TNF-α-treated L6 muscle cells; type: cell-based; conditions: differentiated L6 muscle cells, 50 ng/mL TNF-α
Description: (§5) L6 myoblast (ATCC) was added to a 6-well plate at 2×10^5 cells/ml together with DMEM (Hyclone) containing 10% FBS (Hyclone). When the cell density reached about 80% to 85%, the medium in the wells was removed and myotube differentiation was induced by treating the cells with DMEM (Hyclone) containing 2% HS (Hyclone). The medium was replaced with fresh medium every two days and the differentiation was carried out for a total of 6 days. After differentiation, 0.1 μM and 1 μM of morusin prepared in Example 2-1 were respectively dissolved in DMEM (Hyclone) containing 50 ng/mL tumor necrosis factor alph (TNF-α; PeproTech, Rocky Hills, N.J., USA), followed by their treatment on the cells. After 6 hours, total RNA was isolated using TRIzol reagent (Invitrogen). The isolated total RNA was quantified using NanoDrop 1000 (Thermo Fisher Scientific Inc.). The quantified 16 μL of RNA was synthesized into cDNA using Reverse Transcriptase Premix (ELPIS-Biotech) and PCR machine (Gene Amp PCR System 2700: Applied Biosystems) at 42° C. for 55 minutes and at 70° C. for 15 minutes. The PCR was performed by repeating 30 cycles at 95° C. for 30 seconds, at 60° C. for 1 minute and at 72° C. for 1 minute with 4 μl of 16 μl cDNA, the following specific primers (Bioneer), and PCR premix (ELPIS-Biotech): […]

p-4EBP1 = p-4EBP1 protein expression by western blot in L6 muscle cells; type: cell-based
Description: as §1

MuRF-1 = MuRF-1 mRNA expression by RT-PCR in TNF-α-treated L6 muscle cells; type: cell-based; conditions: differentiated L6 muscle cells, 50 ng/mL TNF-α
Description: as §5

With `CC(C)=CCc1c(-c2ccc(O)cc2O)oc2c([C@H]3C=C(C)C[C@@H](c4ccc(O)cc4O)[C@@H]3C(=O)c3ccc(O)cc3O)c(O)cc(O)c2c1=O` [Kuwanon G, 8-[(1S,5R,6S)-6-(2,4-Dihydroxybenzoyl)-5-(2,4-dihydroxyphenyl)-3-methyl-2-cyclohexen-1-yl]-2-(2,4-dihydroxyphenyl)-5,7-dihydroxy-3-(3-methyl-2-buten-1-yl)-4H-chromen-4-one] the “expression of p-p70S6K protein” value (p-p70S6K; 1 μM and 5 μM) was “increased”, the “expression of myogenin mRNA” value (myogenin; 1 μM and 5 μM) was “increased” and the “expression of p-mTOR” value (p-mTOR) was “increased”. The “expression of MyoD mRNA” value (MyoD; 1 μM and 5 μM) was “increased”, the “increase in weight of muscle” value (Wistar rats) was 22.60% and the “Average calf muscle weight” value (Wistar rats) was 537 ± 15.2 mg. For the same compound, the “mRNA expression of atrogin-1” value (atrogin-1; concentration not given) was “decreased”, the “expression of p-4EBP1 protein” value (p-4EBP1; 1 μM and 5 μM) was “increased” and the “mRNA expression of MuRF-1” value (MuRF-1; concentration not given) was “decreased”.
`CC(C)=CCc1c(-c2ccc(O)cc2O)oc2c3c(cc(O)c2c1=O)OC(C)(C)C=C3` [Morusin, 2-(2,4-Dihydroxyphenyl)-5-hydroxy-8,8-dimethyl-3-(3-methyl-2-buten-1-yl)-4H,8H-benzo[1,2-b:3,4-b′]dipyran-4-one] was tested, and the “expression of p-p70S6K protein” value (p-p70S6K; 0.1 and 1 μM) was “increased”, the “expression of myogenin mRNA” value (myogenin; 0.1 and 1 μM) was “increased” and the “expression of p-mTOR” value (p-mTOR) was “increased”. For the same compound, the “expression of MyoD mRNA” value (MyoD; 0.1 and 1 μM) was “increased”, the “increase in weight of muscle” value (Wistar rats) was 23.97% and the “Average calf muscle weight” value (Wistar rats) was 543 ± 32.9 mg. For the same compound, the “mRNA expression of atrogin-1” value (atrogin-1; 0.1 μM and 1 μM, 6 hours) was “decreased”, the “expression of p-4EBP1 protein” value (p-4EBP1; 0.1 and 1 μM) was “increased” and the “mRNA expression of MuRF-1” value (MuRF-1; 0.1 μM and 1 μM, 6 hours) was “decreased”.

Source: US10576057B2, “Methods for treating muscle wasting and degeneration diseases” (NEWTREE CO., LTD., priority 2015, dated 2020)
